Data set [1] in a line: peripheral blood cell count after intraperitoneal administration. The settings on record: for Hb / Plt / WBC: seven repeat injections, Day 8.
Procedure: At 24 h after the first injection, and at 8 days after the last of seven repeat injections, peripheral blood was collected from the tail vein and analyzed by an automated blood cell counter (Celltacα MEK-6500; NIHON KOHDEN, Tokyo, Japan). Data are presented as the mean ± SEM of three independent experiments.
The next data set deals with THP-1. Kind of data set: modified MTT assay (Cell Counting Kit-8), cell proliferation. It is filed as cell-based, human. The settings on record: Homo sapiens, THP-1, 72 h. As to the method:
(§1) The trypan blue dye exclusion method was used to evaluate cell viability. Cells (HL-60, THP1, SKM1 and Kasumi1 cells) were seeded in flat-bottomed 96-well plates at a density of 1 × 10^4 cells in 100 µL medium per well and incubated with FA-HP-β-CyD (0, 0,1, 0.25, 0.5, 0.75, 1 mM) or HP-β-CyD (0, 1, 2.5, 5, 10 mM) for 72 h. Then, viable cells were counted. Cell proliferation was evaluated by a modified MTT assay using Cell Counting Kit-8 (Dojindo Molecular Technologies, Kumamoto, Japan), as previously described. AML cells were cultured in 96-well plates at a density of 1 × 10^4 cells in 100 µL medium per well and incubated with FA-HP-β-CyD or HP-β-CyD for 72 h. The half-maximal inhibitory concentration values (IC50) were determined by non-linear regression using CalcuSyn software version 1.1.1 (Biosoft, Cambridge, UK), as previously described. After obtaining IC50 values for each agent, the antileukemic activity of FA-HP-β-CyD plus cytosine arabinoside (Ara-C) or Venetoclax was evaluated, as previously described. […] CalcuSyn was used to calculate the fraction affected (Fa, in which a value of 0.25 indicates […]) and the CI. This method is capable of quantifying synergistic (CI < 1) and antagonistic (CI > 1) effects at different dose and effect levels.
In general terms: Tetrazolium assays rely on reduction of a dye to a coloured formazan, in cell work by metabolically active cells.

For another data set, the system named is HL-60. The data set is described as above. It is filed as cell-based, human. The settings on record: Homo sapiens, HL-60, 72 h. As for the experimental part: as §1
In the next data set the test system is SKM-1. Described as above. It is filed as cell-based, human. The following applies: Homo sapiens, SKM-1, 72 h. As to the method: as §1
The test system of the next data set is Kasumi-1. The data set is described as above. It is filed as cell-based, human. The settings on record: Homo sapiens; Kasumi-1, 72 h. As to the method:
The trypan blue dye exclusion method was used to evaluate cell viability. Cells (HL-60, THP1, SKM1 and Kasumi1 cells) were seeded in flat-bottomed 96-well plates at a density of 1 × 10^4 cells in 100 µL medium per well and incubated with FA-HP-β-CyD (0, 0,1, 0.25, 0.5, 0.75, 1 mM) or HP-β-CyD (0, 1, 2.5, 5, 10 mM) for 72 h. Then, viable cells were counted. Cell proliferation was evaluated by a modified MTT assay using Cell Counting Kit-8 (Dojindo Molecular Technologies, Kumamoto, Japan), as previously described. AML cells were cultured in 96-well plates at a density of 1 × 10^4 cells in 100 µL medium per well and incubated with FA-HP-β-CyD or HP-β-CyD for 72 h. […] This method is capable of quantifying synergistic (CI < 1) and antagonistic (CI > 1) effects at different dose and effect levels.

What is called IC50 is the midpoint of a concentration-inhibition curve. For the compound `CC(O)COC[C@H]1O[C@@H]2O[C@H]3[C@H](O)[C@@H](O)[C@@H](O[C@H]4[C@H](O)[C@@H](O)[C@@H](O[C@H]5[C@H](O)[C@@H](O)[C@@H](O[C@H]6[C@H](O)[C@@H](O)[C@@H](O[C@H]7[C@H](O)[C@@H](O)[C@@H](O[C@H]8[C@H](O)[C@@H](O)[C@@H](O[C@H]1[C@H](O)[C@H]2O)O[C@@H]8COCC(C)O)O[C@@H]7COCC(C)O)O[C@@H]6COCC(C)O)O[C@@H]5COCC(C)O)O[C@@H]4COCC(C)O)O[C@@H]3COCC(C)O` (stereo partly drawn) [HP-β-CyD, 2-Hydroxypropyl-β-cyclodextrin], in data set [1] (8 days after intraperitoneal injection, exception: higher dose of HP-β-CyD (10,000 mg/kg b.i.d.)), the “change in blood cell counts compared with vehicle (PBS)” value is “no significant change”. Moreover, the values for the Hb in data set [1] (HP-β-CyD 2000 mg/kg i.p.) and in data set [1] (HP-β-CyD 6000 mg/kg i.p.) were 12.4 ± 0.67 g/dL and 14.3 ± 0.25 g/dL, respectively. Moreover, the Plt in data set [1] (HP-β-CyD 2000 mg/kg i.p.) is 64.5 ± 2.29 ×10^4/μL; in data set [1] (HP-β-CyD 6000 mg/kg i.p.) it was 60.2 ± 10.69 ×10^4/μL; in data set [1] (HP-β-CyD 10,000 mg/kg i.p.), 75.5 ± 17.83 ×10^4/μL. The WBC is recorded as 44.7 ± 12.65 ×10^2/μL in data set [1] (HP-β-CyD 2000 mg/kg i.p.); 50.0 ± 2.34 ×10^2/μL in data set [1] (HP-β-CyD 6000 mg/kg i.p.); 30.5 ± 1.65 ×10^2/μL in data set [1] (HP-β-CyD 10,000 mg/kg i.p., p < 0.05). Further, the IC50 is 9.05 mM in the data set on THP-1, 7.66 mM in the data set with HL-60, 9.44 mM with SKM-1 and 3.14 mM with Kasumi-1.

The record behind these values is paper PMC10706821, “Folate-Appended Hydroxypropyl-β-Cyclodextrin Induces Autophagic Cell Death in Acute Myeloid Leukemia Cells” (International Journal of Molecular Sciences, 2023).
